These results are taken from PubChem BioAssay (NCI).

Some test systems named below: MDA-MB-231 breast; BT-549 breast; DU-145 prostate; MCF7 breast; MDA-MB-435; LXFL 529 NSCLC; M19-MEL melanoma; DLD-1 colon; SNB-78 CNS; KM20L2 colon.
Holding throughout (assay): NCI-60 cell line screen, 48 h

Several values for one entry are separate records, joined by “and”; a condition that tells them apart may be missing. Identical values can stand only once.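 Protocol summary: plate cells (96-well), add compound at 5 concentrations, incubate 48 h, interpolate endpoints linearly. GI50 is the concentration that inhibits growth by half. At the TGI there is no net growth.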 Where a SMILES comes first, the peptide text is derived from it. [ ]: non-standard residue; d: D form. The star is where a group is joined. ξ: configuration not given here. X6 = FC(F)(F)c1cc(NC(=S)*)cc(C(F)(F)F)c1; ξF = NC(Cc1ccccc1)C(=O)O

For the molecule `COC(=O)[C@@H](NC(=O)CNC(=O)[C@H]1CCCN1C(=O)C(Cc1ccccc1)NC(=S)Nc1cc(C(F)(F)F)cc(C(F)(F)F)c1)C(C)C` (stereo partly specified) (X6-[ξF][dP]GV-OMe), the GI50 in the experiment with MDA-MB-231 breast is 1.48 µM; in the experiment with BT-549 breast, 1.85 µM; with DU-145 prostate it was 4.85 µM; with MCF7 breast, 2.86 µM; with MDA-MB-435, 2.79 µM. Besides, the TGI in the experiment on MDA-MB-231 breast came out at 3.14 µM; with BT-549 breast it was 3.78 µM; in the experiment on DU-145 prostate, 20.8 µM; in the experiment on MCF7 breast, 11.3 µM; with MDA-MB-435, 8.12 µM.

In the case of `Cn1cc(C2=C(c3cn(C)c4ncccc34)C(=O)NC2=O)c2ccccc21`, the GI50 in the experiment with MDA-MB-231 breast was 12.2 µM; with BT-549 breast, 6.97 µM; with DU-145 prostate it was 13.1 µM; in the experiment on MCF7 breast, 7.66 µM; in the experiment on MDA-MB-435, 2.2 µM. Besides, the TGI is greater than 25 µM in the experiment on MDA-MB-231 breast; 22.2 µM in the experiment on BT-549 breast; greater than 25 µM in the experiment on DU-145 prostate; greater than 25 µM in the experiment on MCF7 breast; greater than 25 µM with MDA-MB-435.

`NC(=O)c1sc(-n2cnc3ccccc32)cc1OCc1ccccc1Br`: the GI50 is 4.96 µM with MDA-MB-231 breast; 9.68 µM with BT-549 breast; 2.02 µM with DU-145 prostate; 0.86 µM in the experiment with MCF7 breast; 0.795 µM in the experiment with MDA-MB-435. Also, the TGI with MDA-MB-231 breast was greater than 25 µM; with BT-549 breast, greater than 25 µM; with DU-145 prostate it was 7.19 µM; in the experiment with MCF7 breast it was greater than 25 µM; in the experiment on MDA-MB-435, 5.47 µM.

On to `Clc1ccc2c(NCCCCNc3nc(N4CCCCC4)nc4ccccc34)ccnc2c1`, for which the GI50 was 1.75 µM in the experiment on MDA-MB-231 breast; 1.78 µM in the experiment on BT-549 breast; 3.8 µM with DU-145 prostate; 2.52 µM in the experiment on MCF7 breast; 1.67 µM with MDA-MB-435. In addition, the TGI was 4.28 µM in the experiment with MDA-MB-231 breast; 4.1 µM with BT-549 breast; 15.2 µM in the experiment on DU-145 prostate; 10.8 µM in the experiment with MCF7 breast; 3.2 µM in the experiment on MDA-MB-435.

For `Cc1nc2ccccc2c(=O)n1-c1ccccc1I`, the TGI in the experiment with LXFL 529 NSCLC, with M19-MEL melanoma, in the experiment on DLD-1 colon and with SNB-78 CNS was greater than 100 µM in each case.

Turning to `COc1cc(/C=N/NC(=O)c2ccc(C(F)(F)F)nc2Nc2ccc(Cl)cc2C)ccc1O`, the GI50 with MDA-MB-231 breast is 0.939 µM; in the experiment on BT-549 breast, 1.34 µM; in the experiment with DU-145 prostate, 4.27 µM; with MCF7 breast it was 2.02 µM; in the experiment with MDA-MB-435 it was 3.08 µM. The TGI in the experiment on MDA-MB-231 breast amounted to 10.3 µM; in the experiment on BT-549 breast, 9.69 µM; with DU-145 prostate, 16.3 µM; with MCF7 breast it was 11.6 µM; in the experiment on MDA-MB-435, 11 µM.

`O=C1CC(c2ccc3c(c2)OCO3)Nc2ccccc21` (stereo unspecified): the GI50 in the experiment on MDA-MB-231 breast was 8.06 µM; in the experiment on BT-549 breast, 5.99 µM; with DU-145 prostate, 3.1 µM; with MCF7 breast, 4.96 µM; with MDA-MB-435, 4.94 µM. Besides, the TGI with MDA-MB-231 breast was determined as 36.5 µM; in the experiment with BT-549 breast it was 55.5 µM; in the experiment on DU-145 prostate, 12.6 µM; with MCF7 breast it was 36.7 µM; in the experiment with MDA-MB-435 it was 31.1 µM.

For the molecule `O=C1C(Cl)=C(Nc2cccc(Cl)c2)C(=O)N1Cc1ccc(Cl)cc1Cl`, the GI50 with MDA-MB-231 breast is 0.176 µM; in the experiment with BT-549 breast it was 0.0663 µM; with DU-145 prostate, 5.87 µM; in the experiment on MCF7 breast it was 1.24 µM; with MDA-MB-435, 1.24 µM. Moreover, the TGI turned out to be 12.9 µM with MDA-MB-231 breast; 7.48 µM in the experiment on BT-549 breast; 18.2 µM in the experiment on DU-145 prostate; 41.5 µM in the experiment with MCF7 breast; 16 µM with MDA-MB-435.

As to `COC1CCC(N2C(=O)CNc3ncc(-c4ccc(C(C)(C)O)nc4)nc32)CC1` (stereo unspecified), the GI50 with MDA-MB-231 breast is 0.52 µM and 0.283 µM; in the experiment with BT-549 breast it was 0.329 µM and 0.0572 µM; in the experiment on DU-145 prostate, 1.42 µM and 0.459 µM; in the experiment on MCF7 breast, 0.305 µM and 0.127 µM; in the experiment with MDA-MB-435, 0.668 µM and 0.167 µM. Further, the TGI in the experiment with MDA-MB-231 breast is 4.8 µM and 25.3 µM; with BT-549 breast, 3.6 µM and 0.991 µM; with DU-145 prostate, greater than 38 µM; in the experiment with MCF7 breast it was > 10 µM and 12.6 µM; in the experiment with MDA-MB-435 it was 3.28 µM.

`COC1CCC2C(NS(=O)(=O)c3ccc(C)cc3)CCCC2O1` (stereo unspecified) (tested in a mixture with another compound): the TGI in the experiment on KM20L2 colon, with M19-MEL melanoma, with DLD-1 colon and in the experiment on SNB-78 CNS was greater than 34.5 µM each time.

For `CN(C)C(=N)c1ccccc1`, the TGI in the experiment with LXFL 529 NSCLC, in the experiment on KM20L2 colon, in the experiment with M19-MEL melanoma and with SNB-78 CNS was greater than 100 µM throughout.

With `C#Cc1ccc(-n2c(/C=C/c3ccc(C(F)(F)F)cc3)nc3ncccc3c2=O)cc1`, the GI50 in the experiment with MDA-MB-231 breast was 2.05 µM; in the experiment with BT-549 breast it was 1.71 µM; in the experiment with DU-145 prostate, 3.76 µM; with MCF7 breast it was 2.49 µM; in the experiment with MDA-MB-435 it was 2.27 µM. Moreover, the TGI in the experiment on MDA-MB-231 breast is 5.47 µM; in the experiment with BT-549 breast, 3.37 µM; in the experiment with DU-145 prostate, 12.2 µM; in the experiment on MCF7 breast, 10.2 µM; in the experiment on MDA-MB-435, 6.48 µM.

Consider `Cc1cc(I)cc(CN(C)CCCCN2CCCCC2)c1O`, for which the GI50 was 16.3 µM in the experiment on MDA-MB-231 breast; 8.05 µM with BT-549 breast; 26.8 µM in the experiment with DU-145 prostate; 13.6 µM in the experiment with MCF7 breast; 3.5 µM in the experiment on MDA-MB-435. Besides, the TGI was 43 µM in the experiment on MDA-MB-231 breast; 21.5 µM in the experiment with BT-549 breast; greater than 100 µM in the experiment on DU-145 prostate; 30 µM with MCF7 breast; 12.9 µM with MDA-MB-435.

As for `CCCCCN(CCCCC)CCCNc1c2c(nc3ccc(Cl)cc13)CCCC2`, the GI50 was 2.76 µM in the experiment on MDA-MB-231 breast; 11.2 µM in the experiment on BT-549 breast; 3.71 µM with DU-145 prostate; 2.46 µM with MCF7 breast; 2.23 µM in the experiment on MDA-MB-435. Further, the TGI in the experiment with MDA-MB-231 breast was 13.1 µM; with BT-549 breast, 23.4 µM; in the experiment with DU-145 prostate it was 13.4 µM; in the experiment with MCF7 breast, 8.34 µM; in the experiment with MDA-MB-435, 6.56 µM.

Regarding `CN/N=C(/Cc1occc(=O)c1O)C(=O)Nc1ccccc1C`, the TGI with LXFL 529 NSCLC, in the experiment with KM20L2 colon, in the experiment on M19-MEL melanoma and in the experiment on SNB-78 CNS was greater than 100 µM each time.
